Molecular target: T1, human M4 muscarinic acetylcholine receptor (Homo sapiens, UniProt P08173)
T1 construct: expressed in transfected cells; host or cells: CHO-K1
T1 sequence (P08173 1-479): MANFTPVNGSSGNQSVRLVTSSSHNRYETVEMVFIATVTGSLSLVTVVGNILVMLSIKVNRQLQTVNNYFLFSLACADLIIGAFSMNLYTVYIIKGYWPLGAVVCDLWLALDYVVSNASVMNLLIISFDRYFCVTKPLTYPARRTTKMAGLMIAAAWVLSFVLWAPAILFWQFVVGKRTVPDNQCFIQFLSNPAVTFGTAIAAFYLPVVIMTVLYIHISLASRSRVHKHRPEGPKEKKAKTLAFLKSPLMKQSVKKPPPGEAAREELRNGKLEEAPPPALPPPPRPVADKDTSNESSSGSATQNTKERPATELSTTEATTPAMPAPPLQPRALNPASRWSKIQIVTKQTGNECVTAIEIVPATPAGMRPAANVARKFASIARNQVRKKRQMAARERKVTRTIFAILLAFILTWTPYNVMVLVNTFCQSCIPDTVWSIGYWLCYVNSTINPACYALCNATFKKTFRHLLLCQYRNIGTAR
Assay: human FLIPR-based M4 PAM assay (Ca2+ mobilization, CHO-K1 cells with human M4 receptor and Gαqi5)
Assay type: cell-based
Conditions: acetylcholine at 20% of maximum response, read-out: M4 PAM IP
Procedure, shortened: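 CHO-K1 cells stably expressing human M4 and chimeric Gαqi5 were dye-loaded ~1 h at 37 °C and read for Ca2+ fluorescence. Compound followed by acetylcholine at an EC20 (sometimes an EC70 third addition); inflection point from a 4-parameter logistic fit.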

SMILES	EC50 [nM]
Cc1cc2c(nc1N1[C@@H]3CC[C@H]1C[C@H](Oc1cccc(C#N)c1)C3)CNC2=O [Example 96, 3-((exo-8-(3-methyl-5-oxo-6,7-dihydro-5H-pyrrolo[3,4-b]pyridin-2-yl)-8-azabicyclo[3.2.1]octan-3-yl)oxy)benzonitrile]	1430
COc1ccc(O[C@H]2C[C@H]3CC[C@@H](C2)N3c2nc3c(cc2C)C(=O)NC3)cn1 [Example 97, 2-(endo-3-((6-methoxypyridin-3-yl)oxy)-8-azabicyclo[3.2.1]octan-8-yl)-3-methyl-6,7-dihydro-5H-pyrrolo[3,4-b]pyridin-5-one]	800
Cc1cc2c(nc1N1[C@@H]3CC[C@H]1C[C@H](Oc1ccc4c(cnn4C)c1)C3)CNC2=O [Example 98, 3-methyl-2-(exo-3-((1-methyl-1H-indazol-5-yl)oxy)-8-azabicyclo[3.2.1]octan-8-yl)-6,7-dihydro-5H-pyrrolo[3,4-b]pyridin-5-one]	522
COc1ccc(O[C@@H]2C[C@H]3CC[C@@H](C2)N3c2nc3c(cc2C)C(=O)NC3)cn1 [Example 99, 2-(exo-3-((6-methoxypyridin-3-yl)oxy)-8-azabicyclo[3.2.1]octan-8-yl)-3-methyl-6,7-dihydro-5H-pyrrolo[3,4-b]pyridin-5-one]	735
Cc1cc2c(nc1N1[C@@H]3CC[C@H]1C[C@@H](Oc1ccc4c(cnn4C)c1)C3)CNC2=O [Example 100, 3-methyl-2-(endo-3-((1-methyl-1H-indazol-5-yl)oxy)-8-azabicyclo[3.2.1]octan-8-yl)-6,7-dihydro-5H-pyrrolo[3,4-b]pyridin-5-one]	1030
COc1cncc(OC2CCN(c3nc4c(cc3C)C(=O)NC4)CC2)c1 [Example 101, 2-(4-((5-methoxypyridin-3-yl)oxy)piperidin-1-yl)-3-methyl-6,7-dihydro-5H-pyrrolo[3,4-b]pyridin-5-one]	869
Cc1cc2c(nc1N1CCC(Oc3ccnc(OC(F)(F)F)c3)CC1)CNC2=O [Example 102, 3-methyl-2-(4-((2-(trifluoromethoxy)pyri-din-4-yl)oxy)piperidin-1-yl)-6,7-dihydro-5H-pyrrolo[3,4-b]pyridin-5-one]	690
COC(=O)c1cncc(OC2CCN(c3nc4c(cc3C)C(=O)NC4)CC2)c1 [Example 111, methyl 5-((1-(3-methyl-5-oxo-6,7-dihydro-5H-pyrrolo[3,4-b]pyridin-2-yl)piperidin-4-yl)oxy)nicotinate]	4360
Cc1cc2c(nc1N1CCC(Oc3ccc4c(c3)CCOC4=O)CC1)CNC2=O [Example 121, 3-methyl-2-(4-((1-oxoisochroman-6-yl)oxy)piperidin-1-yl)-6,7-dihydro-5H-pyrrolo[3,4-b]pyridin-5-one]	1920
Cc1nc2ccc(OC3CCN(c4nc5c(cc4C)C(=O)NC5)CC3)cc2s1 [Example 122, 3-methyl-2-(4-((2-methylbenzo[d]thiazol-6-yl)oxy)piperidin-1-yl)-6,7-dihydro-5H-pyrrolo[3,4-b]pyridin-5-one]	2110
Cc1cc2c(nc1N1CCC(Oc3ccc(OC(F)(F)F)nc3)CC1)CNC2=O [Example 124, 3-methyl-2-(4-((6-(trifluoromethoxy)pyri-din-3-yl)oxy)piperidin-1-yl)-6,7-dihydro-5H-pyrrolo[3,4-b]pyridin-5-one]	362
Cc1cc2c(nc1N1CCC(Oc3ccc4c(c3)C(C)(C)CCO4)CC1)CNC2=O [Example 125, 2-(4-((4,4-dimethylchroman-6-yl)oxy)piperidin-1-yl)-3-methyl-6,7-dihydro-5H-pyrrolo[3,4-b]pyridin-5-one]	612
Cc1cc2c(nc1N1CCC(Oc3ccc4c(c3)CCC(C)(C)O4)CC1)CNC2=O [Example 127, 2-(4-((2,2-dimethylchroman-6-yl)oxy)piperidin-1-yl)-3-methyl-6,7-dihydro-5H-pyrrolo[3,4-b]pyridin-5-one]	480
Cc1cc2c(nc1N1CCC(Oc3ccc4ccc(=O)[nH]c4c3)CC1)CNC2=O [Example 128, 7-((1-(3-methyl-5-oxo-6,7-dihydro-5H-pyrrolo[3,4-b]pyridin-2-yl)piperidin-4-yl)oxy)quinolin-2(1H)-one]	2370

Stronger by EC50, values ahead:

EC50 [nM]	SMILES
138	Cc1cc2c(nc1N1CCC(Oc3cncc(F)c3)CC1)CNC2=O [Example 103, 2-(4-((5-fluoropyridin-3-yl)oxy)piperidin-1-yl)-3-methyl-6,7-dihydro-5H-pyrrolo[3,4-b]pyridin-5-one]
60	Cc1cc2c(nc1N1CCC(Oc3ccc(N)nc3)CC1)CNC2=O [Example 104, 2-(4-((6-aminopyridin-3-yl)oxy)piperidin-1-yl)-3-methyl-6,7-dihydro-5H-pyrrolo[3,4-b]pyridin-5-one]
104	Cc1cc2c(nc1N1CCC(Oc3ccc(N4CCC4)nc3)CC1)CNC2=O [Example 105, 2-(4-((6-(azetidin-1-yl)pyridin-3-yl)oxy)piperidin-1-yl)-3-methyl-6,7-dihydro-5H-pyrrolo[3,4-b]pyridin-5-one]
298	Cc1cc2c(nc1N1CCC(Oc3ccc(N(C)C)nc3)CC1)CNC2=O [Example 106, 2-(4-((6-(dimethylamino)pyridin-3-yl)oxy)piperidin-1-yl)-3-methyl-6,7-dihydro-5H-pyrrolo[3,4-b]pyridin-5-one]
87	Cc1cc2c(nc1N1CCC(Oc3ccc4c(c3)NCCO4)CC1)CNC2=O [Example 107, 2-(4-((3,4-dihydro-2H-benzo[b][1,4]oxazin-6-yl)oxy)piperidin-1-yl)-3-methyl-6,7-dihydro-5H-pyrrolo[3,4-b]pyridin-5-one]
59	Cc1cc(OC2CCN(c3nc4c(cc3C)C(=O)NC4)CC2)ccc1F [Example 108, 2-(4-(4-fluoro-3-methylphenoxy)piperidin-1-yl)-3-methyl-6,7-dihydro-5H-pyrrolo[3,4-b]pyridin-5-one]
20	Cc1cc2c(nc1N1CCC(Oc3ccc4c(c3)CCO4)CC1)CNC2=O [Example 109, 2-(4-((2,3-dihydrobenzofuran-5-yl)oxy)piperidin-1-yl)-3-methyl-6,7-dihydro-5H-pyrrolo[3,4-b]pyridin-5-one]
39	Cc1cc2c(nc1N1CCC(Oc3ccc4c(c3)C(=O)OC4)CC1)CNC2=O [Example 110, 3-methyl-2-(4-((3-oxo-1,3-dihydro-2-benzofuran-5-yl)oxy)piperidin-1-yl)-6,7-dihydro-5H-pyrrolo[3,4-b]pyridin-5-one]
20	Cc1cc2c(nc1N1CCC(Oc3ccc4c(c3)COCC4)CC1)CNC2=O [Example 112, 2-(4-(isochroman-7-yloxy)piperidin-1-yl)-3-methyl-6,7-dihydro-5H-pyrrolo[3,4-b]pyridin-5-one]
50	Cc1cc2c(nc1N1CCC(Oc3ccc4c(c3)OCCC4)CC1)CNC2=O [Example 113, 2-(4-(chroman-7-yloxy)piperidin-1-yl)-3-methyl-6,7-dihydro-5H-pyrrolo[3,4-b]pyridin-5-one]
88	Cc1cc(OC2CCN(c3nc4c(cc3C)C(=O)NC4)CC2)cnc1C [Example 114, 2-(4-((5,6-dimethylpyridin-3-yl)oxy)piperidin-1-yl)-3-methyl-6,7-dihydro-5H-pyrrolo[3,4-b]pyridin-5-one]
119	COc1ncc(OC2CCN(c3nc4c(cc3C)C(=O)NC4)CC2)cc1C [Example 115, 2-(4-((6-methoxy-5-methylpyridin-3-yl)oxy)piperidin-1-yl)-3-methyl-6,7-dihydro-5H-pyrrolo[3,4-b]pyridin-5-one]
45	Cc1cc2c(nc1N1CCC(Oc3ccc4c(c3)CCCO4)CC1)CNC2=O [Example 116, 2-(4-(chroman-6-yloxy)piperidin-1-yl)-3-methyl-6,7-dihydro-5H-pyrrolo[3,4-b]pyridin-5-one]
17	Cc1cc2c(nc1N1CCC(Oc3ccc4[nH]nc(C)c4c3)CC1)CNC2=O [Example 117, 3-methyl-2-(4-((3-methyl-1H-indazol-5-yl)oxy)piperidin-1-yl)-6,7-dihydro-5H-pyrrolo[3,4-b]pyridin-5-one]
141	Cc1cc2c(nc1N1CCC(Oc3ccc4c(c3)CCC(=O)N4)CC1)CNC2=O [Example 118, 6-((1-(3-methyl-5-oxo-6,7-dihydro-5H-pyrrolo[3,4-b]pyridin-2-yl)piperidin-4-yl)oxy)-3,4-dihydroquinolin-2(1H)-one]
149	Cc1ccc(OC2CCN(c3nc4c(cc3C)C(=O)NC4)CC2)cc1C [Example 119, 2-(4-(3,4-dimethylphenoxy)piper-idin-1-yl)-3-methyl-6,7-dihydro-5H-pyrrolo[3,4-b]pyridin-5-one]
256	Cc1cc2c(nc1N1CCC(Oc3ccc(OCC(F)(F)F)nc3)CC1)CNC2=O [Example 120, 3-methyl-2-(4-((6-(2,2,2-trifluoroethoxy)pyridin-3-yl)oxy)piperidin-1-yl)-6,7-dihydro-5H-pyrrolo[3,4-b]pyridin-5-one]
144	Cc1nc2cc(OC3CCN(c4nc5c(cc4C)C(=O)NC5)CC3)ccc2o1 [Example 123, 3-methyl-2-(4-((2-methylbenzo[d]oxazol-5-yl)oxy)piperidin-1-yl)-6,7-dihydro-5H-pyrrolo[3,4-b]pyridin-5-one]
216	Cc1cc2c(nc1N1CCC(Oc3ccc4c(c3)COC4(C)C)CC1)CNC2=O [Example 126, 2-(4-((1,1-dimethyl-1,3-dihydro-2-benzofuran-5-yl)oxy)piperidin-1-yl)-3-methyl-6,7-dihydro-5H-pyrrolo[3,4-b]pyridin-5-one]
